The test system of the experiment is SARS-CoV-2. Description: microbe, parasite or virus in culture. The settings on record: Severe acute respiratory syndrome coronavirus 2, Vero C1008, 48 h.

The structures appear in SMILES notation.

As for `CC(=O)O[C@H]1C[C@@H]2CC[C@@H]3[C@H](CC[C@@]4(C)[C@H]3C[C@H]([N+]3(C)CCCCC3)[C@@H]4OC(C)=O)[C@@]2(C)C[C@@H]1N1CCCCC1` [VECURONIUM], the IC50 is greater than 20 µM. The IC50 (read-out: pIC50 (converted)) is greater than 20 µM.
`O=C(C1CCCCC1)N1CC(=O)N2CCCc3ccccc3C2C1` (stereo unspecified) returned an IC50 greater than 20 µM. In addition, the IC50 (read-out: pIC50 (converted)) was greater than 20 µM.
Consider `CNCC(=O)c1ccc(O)c(O)c1` [ADRENALONE], for which the IC50 is greater than 20 µM. Also, the IC50 (read-out: pIC50 (converted)) is greater than 20 µM.
In turn, `CCC1(CCC(C)C)C(=O)NC(=O)NC1=O` [AMOBARBITAL] returned an IC50 greater than 20 µM. For the same compound, for the setting “read-out: pIC50 (converted)”, the IC50 was greater than 20 µM.
`Cc1c(O)c(=O)n(-c2ccccc2)n1C` came in with an IC50 greater than 20 µM. Besides, for the setting “read-out: pIC50 (converted)”, the IC50 is greater than 20 µM.
With `O=C(O)c1ccccc1Nc1cccc(C(F)(F)F)c1` [FLUFENAMIC ACID], the IC50 was greater than 20 µM. Also, the IC50 (read-out: pIC50 (converted)) is greater than 20 µM.
For the compound `CCCCNC(=O)NS(=O)(=O)c1ccc(N)cc1` [CARBUTAMIDE], the IC50 is greater than 20 µM. Moreover, under “read-out: pIC50 (converted)”, the IC50 is greater than 20 µM.
The compound `CCN1C(=S)N(c2ccc(N3CCN(c4ccc(O)cc4)CC3)cc2)C(=O)C1(C)C` returned an IC50 greater than 20 µM. The IC50 (read-out: pIC50 (converted)) is greater than 20 µM.
`COc1ccc(F)cc1[C@H](C)NC(=O)Cc1ccc(S(=O)(=O)Nc2ncc(CC(C)C)cn2)cc1` [GLIFLUMIDE] gave an IC50 greater than 20 µM. For the same compound, the IC50 (read-out: pIC50 (converted)) was greater than 20 µM.
`CC(C)(C)NCC(O)COc1ccccc1C#N` (stereo unspecified) [BUNITROLOL]: the IC50 was greater than 20 µM. The IC50 (read-out: pIC50 (converted)) was greater than 20 µM.
`CC(=O)Nc1cccc(-n2c(=O)n(C3CC3)c(=O)c3c(Nc4ccc(I)cc4F)n(C)c(=O)c(C)c32)c1` [TRAMETINIB]: the IC50 was greater than 20 µM. Further, the IC50 (read-out: pIC50 (converted)) is greater than 20 µM.
Turning to `CC12CCC3C4CCC(=O)C=C4CCC3C1CCC2OC(=O)CCc1ccccc1` (stereo unspecified), the IC50 was greater than 20 µM. Moreover, under “read-out: pIC50 (converted)”, the IC50 is greater than 20 µM.
Consider `CC(=O)N[C@H]1[C@H](O[C@@H]2c3ccc(c(Cl)c3)Oc3cc4cc(c3O[C@@H]3O[C@H](CO)[C@@H](O)[C@H](O)[C@H]3NC(=O)CCCCCCC(C)C)Oc3ccc(cc3Cl)C[C@H]3NC(=O)[C@@H](N)c5ccc(O)c(c5)Oc5cc(O)cc(c5)[C@H](NC3=O)C(=O)N[C@H]4C(=O)N[C@H]3C(=O)N[C@@H]2C(=O)N[C@@H](C(=O)O)c2cc(O)cc(O[C@H]4O[C@H](CO)[C@@H](O)[C@H](O)[C@@H]4O)c2-c2cc3ccc2O)O[C@H](CO)[C@@H](O)[C@@H]1O`, for which the IC50 is greater than 20 µM. In addition, where the note is “read-out: pIC50 (converted)”, the IC50 is greater than 20 µM.
Consider `CN1C(=O)CN=C(c2ccccc2F)c2cc([N+](=O)[O-])ccc21` [FLUNITRAZEPAM], for which the IC50 is greater than 20 µM. The IC50 (read-out: pIC50 (converted)) was greater than 20 µM.
Turning to `O=C(NCC1CCCCN1)c1cc(OCC(F)(F)F)ccc1OCC(F)(F)F` (stereo unspecified) [FLECAINIDE], the IC50 is greater than 20 µM. Moreover, the IC50 (read-out: pIC50 (converted)) was greater than 20 µM.
In turn, `CC(=O)[C@@]1(O)CC[C@H]2[C@@H]3C=C(Cl)C4=CC(=O)[C@@H]5C[C@@H]5[C@]4(C)[C@H]3CC[C@@]21C` [CYPROTERONE] returned an IC50 greater than 20 µM. Further, the IC50 (read-out: pIC50 (converted)) was greater than 20 µM.
As to `Nc1ncn([C@H]2C[C@H](O)[C@@H](CO)O2)c(=O)n1` [DECITABINE], the IC50 is greater than 20 µM. Also, the IC50 (read-out: pIC50 (converted)) is greater than 20 µM.
`Nc1nc(OCc2ccccc2)c2nc[nH]c2n1` [6-O-BENZYLGUANINE] gave an IC50 greater than 20 µM. The IC50 (read-out: pIC50 (converted)) was greater than 20 µM.
`O=c1cc(-c2ccccc2)oc2c(O)c(O)ccc12` [7,8-DIHYDROXYFLAVONE] returned an IC50 greater than 20 µM. Also, the IC50 (read-out: pIC50 (converted)) is greater than 20 µM.
The compound `OC[C@H]1O[C@H](O)[C@@H](O)[C@@H](O)[C@@H]1O` returned an IC50 greater than 20 µM. Moreover, the IC50 (read-out: pIC50 (converted)) is greater than 20 µM.
Turning to `Nc1nncs1`, the IC50 is greater than 20 µM. The IC50 (read-out: pIC50 (converted)) was greater than 20 µM.
In the case of `Oc1ccc([C@H]2COc3cc(O)ccc3C2)cc1` [AUS-131], the IC50 was greater than 20 µM. For the same compound, under “read-out: pIC50 (converted)”, the IC50 is greater than 20 µM.
On to `CN(C)CC/C=C1\c2ccccc2CN(C)c2ccccc21`, for which the IC50 is greater than 20 µM. In addition, for the setting “read-out: pIC50 (converted)”, the IC50 was greater than 20 µM.

The values are drawn from ChEMBL document CHEMBL4651402, “Screening of ~5500 FDA-approved drugs and clinical candidates for anti-SARS-CoV-2 activity” (2021).
